Experimental data taken from publication PMC3198688, “Design and development of a peptide-based adiponectin receptor agonist for cancer treatment” (BMC Biotechnology, 2011).
Where two headings read alike, the source gives them in different places. Square brackets hold non-standard residues; d marks the D form. Peptide text beside a SMILES is read from it. Nva = CCC[C@H](N)C(=O)O

Legend:
[1] = molecular target: T1, AdipoR1 extracellular loops (Homo sapiens, UniProt Q96A54); assay: Screening of AdipoR1/peptide binding (ELISA plate, biotin-labeled loop peptides); conditions: preliminary, qualitative study; biotin-labeled loop fragments; data not shown
T1 construct: biotin-labeled linear synthetic models of the 4 extracellular loops of AdipoR1; made in house; host or cells: chemical solid-phase peptide synthesis (Fmoc), no expression host
Text: (§1) The 66 unmodified adiponectin array peptides were individually dried down to wells of an ELISA plate, and tested for binding to biotin-labeled linear synthetic models of the 4 extracellular loops of AdipoR1. The receptor/peptide interaction was detected by horseradish-peroxidase conjugated streptavidin.

[2] = tested on: AdipoR1 extracellular loops; assay: as above; conditions: preliminary, qualitative study; biotin-labeled loop fragments; data not shown
Text: as §1

[3] = tested on: MCF-7 breast cancer cells; assay: Growth inhibition (cytostatic) screening in MCF-7 cells; assay type: cell-based, human
Experimental: Biological activity of the peptides was first assessed using MCF-7 breast cancer cells that are known to express AdipoR1 [38]. MCF-7 cell line was obtained from ATCC (Manassas, VA) and routinely grown in DMEM:F12 plus 5% calf serum (Cellgro Mediatech, Manassas, VA) at 37°C, 5% CO2. For screening experiments, MCF-7 cells were plated in 24-well plates at the concentration of 30,000 cells/well. After 12 h of culture in the growth medium, the cells were synchronized in serum-free medium (SFM) (DMEM:F12 supplemented with […] bovine serum albumin, 1 mM FeSO4 and 2 mM L-glutamine) for 24 h, and then shifted back to the full growth medium containing either gAd (Phoenix Secretomics, Burlingame, CA) at 50 ng/mL, individual peptides, or no test compounds. After 24 h, the cells were counted under the microscope with trypan-blue exclusion. Each experiment was performed in triplicate and repeated at least three times.
The effects of the lead active peptide 355 ([…]) on cell proliferation were tested in breast cancer cell lines (MCF-7, MDA-MB-231) and in glioblastoma cells (LN18), all obtained from ATCC and routinely cultured as described previously. The peptide was tested at 10 pM-100 μM concentrations under conditions described above under peptide screening.

[4] = In vivo toxicity in CBA/J mice; conditions: for Kidney weight / Liver weight / Spleen weight: CBA/J mice, day 5
Text: On day 5, the mice were sacrificed by CO2 inhalation. The potential peptide elimination organs: the livers, spleens and kidneys were removed and weighed.

[5] = Peptide stability in whole mouse blood; assay type: in vitro ADME
Experimental: Sixty μg of ADP 355 were dissolved in 100 μL water, and 10 μL aliquots were mixed with 100 μL of freshly drawn mouse blood. After 30 min of incubation at 37°C, blood cells were centrifuged at 10,000 × g. Fifty μL serum was mixed with 50 μL phosphate buffered saline pH 6.8 (PBS), and serum proteins were precipitated by addition of 45 μL aqueous 15% trichloroacetic acid (TCA) for 10 min at 4°C. After centrifugation at 12,000 × g, the supernatant was neutralized with 0.1 M aqueous sodium hydroxide and 0.5 μL of this solution was mixed with 0.5 μL α-cyano-4-hydroxycinnamic acid (4 mg/mL in 60% aqueous acetonitrile containing 0.1% TFA) as matrix on a sample plate. Analysis was performed using a MALDI time-of-flight tandem mass spectrometer (MALDI-TOF/TOF-MS, 4700 proteomic analyzer, Applied Biosystems, Weiterstadt, Germany). Additionally, the neutralized supernatant was loaded on a Jupiter C18 RP-HPLC column (4.6 mm internal diameter, 150 mm length, 5 μm particle size, 30 nm pore size) previously calibrated with known amounts of ADP 355 dissolved in PBS. Absorbance was measured at 214 nm.

Row | SMILES | binding to the first extracellular loop of AdipoR1 [1] | binding to the other extracellular loops of AdipoR1 [2] | biological activity in cell growth inhibition assays [3] | Kidney weight ([4]; 5 mg/kg bolus ip) [g] | Liver weight ([4]; 5 mg/kg bolus ip) [g] | Spleen weight ([4]; 5 mg/kg bolus ip) [g] | Kidney weight ([4]; 10 mg/kg bolus ip) [g] | Liver weight ([4]; 10 mg/kg bolus ip) [g] | Spleen weight ([4]; 10 mg/kg bolus ip) [g] | Kidney weight ([4]; 25 mg/kg bolus ip) [g] | Liver weight ([4]; 25 mg/kg bolus ip) [g] | Spleen weight ([4]; 25 mg/kg bolus ip) [g] | Kidney weight ([4]; 50 mg/kg bolus ip) [g] | Liver weight ([4]; 50 mg/kg bolus ip) [g] | Spleen weight ([4]; 50 mg/kg bolus ip) [g] | signs of systemic toxicity (tremor, head tilt, reduced activity and squinting) ([4]; healthy CBA/J mice, bolus ip up to 50 mg/kg, observed for 4 days) | stability in whole mouse blood after 30 min ([5]; freshly drawn whole mouse blood, 37°C, 30 min, 10 μL of 60 μg/100 μL peptide in 100 μL blood, TCA precipitation, MALDI-TOF/TOF-MS and C18 RP-HPLC (214 nm)) | stability in mouse blood or serum ([5]; mouse blood or serum, 37°C (abstract)) | biological activity in cell growth inhibition assays ([3]; listed as fragment 157-162)
1 | CC[C@H](C)[C@H](NC(=O)[C@@H](N)CC(N)=O)C(=O)N1CCC[C@H]1C(=O)NCC(=O)N[C@@H](CC(C)C)C(=O)N[C@@H](Cc1ccc(O)cc1)C(=O)N[C@@H](Cc1ccc(O)cc1)C(=O)N[C@@H](Cc1ccccc1)C(=O)N[C@@H](C)C(=O)N[C@@H](Cc1ccc(O)cc1)C(N)=O [ADP 25, H-Asn-Ile-Pro-Gly-Leu-Tyr-Tyr-Phe-Ala-Tyr-NH2] (H-NIPGLYYFAY-NH2) | bound the first extracellular loop of AdipoR1 | not other loops | fully active | – | – | – | – | – | – | – | – | – | – | – | – | – | – | – | –
2 | CCC[C@H](NC(=O)[C@@H]1CCCN1C(=O)[C@@H](NC(=O)[C@H](N)CC(N)=O)[C@@H](C)CC)C(=O)N[C@@H](CC(C)C)C(=O)N[C@@H](Cc1ccc(O)cc1)C(=O)N[C@H](CO)C(=O)N[C@@H](Cc1ccccc1)C(=O)N[C@@H](C)C(=O)N[C@H](CO)C(N)=O [ADP 355, H-DAsn-Ile-Pro-Nva-Leu-Tyr-DSer-Phe-Ala-DSer-NH2] (H-[dN]IP[Nva]LY[dS]FA[dS]-NH2) | – | – | – | 0.30 | 1.02 | 0.07 | 0.29 | 1.09 | 0.06 | 0.35 | 1.24 | 0.07 | 0.31 | 1.07 | 0.07 | no signs of systemic toxicity | without noticeable degradation | at least 30 min | –
3 | CC(C)C[C@H](NC(=O)CNC(=O)[C@@H]1CCCN1)C(=O)N[C@@H](Cc1ccc(O)cc1)C(=O)N[C@@H](Cc1ccc(O)cc1)C(=O)N[C@@H](Cc1ccccc1)C(N)=O [Middle 6 of 25, H-Pro-Gly-Leu-Tyr-Tyr-Phe -NH2] (H-PGLYYF-NH2) | – | – | inactive | – | – | – | – | – | – | – | – | – | – | – | – | – | – | – | did not exhibit any biological activity
